# In patent US5041447A, “Oxetanocin-related compounds and pharmaceutical compositions containing them” (priority 1988, dated 1991):
# Columns and labels:
# [1] = test system: cytomegalovirus (A0169 strain); assay: Anti-cytomegalovirus activity: plaque formation in human fetal fibroblasts; format: cell-based; conditions: Human betaherpesvirus 5, Fibroblast, 240 h, 100 PFU, 37° C., 10 days
# Protocol: Anti-cytomegalovirus activity was determined in the following manner. Thus, a 35 mm.phi. dish containing a single layer of human fetal fibroblasts was infected with 100 PFU (plaque forming units) of cytomegalovirus (A0169 strain). After adsorption for one hour, a medium (0.5% agarose, 2% fetal calf serum) containing a varied concentration of the compound of this invention was superposed thereon, and the whole was cultured at 37° C. for 10 days in 5% (v/v) carbon dioxide incubator, after which the formation of plaque was measured. The results are shown in Table 3 in terms of 50% inhibitory value (IC50).
# [2] = test system: HIV (human immunodeficiency virus); assay: Anti-HIV activity: development of virus antigen in HIV-infected MT-4 cells (indirect fluorescent antibody method); format: cell-based; conditions: 4 days, DMSO only 80 to 90%
# Protocol: Anti-HIV (human immunodeficiency virus) activity
# MT-4 cell (about 100,000 cells/ml) was added into a 24 well tray, and then 100 microliters of a solution containing a predetermined quantity of a compound of this invention was added. After culturing it at 37° C. for 5 hours in 5% (v/v) carbon dioxide incubator, 10^3 to 10^4 infection units of HIV was added and cultured for 4 days. Then, a part of the cultured fluid was coated onto a slide glass and immobilized with acetone, after which development of virus antigen was observed by indirect fluorescent antibody method.
# As the primary antibody of the fluorescent antibody method, a serum of AIDS patient was used. As its secondary antibody, FITC-labelled […] was used.
Structure (SMILES),IC50 [1],Development of virus antigen (%) ([2]; 3 μg/ml),Development of virus antigen (%) ([2]; 10 μg/ml),Development of virus antigen (%) ([2]; 100 μg/ml)
CCCCC(=O)OC[C@H]1O[C@@H](n2cnc3c(N)nc(N)nc32)[C@@H]1CO [Compound No. 15],> 5 µg/mL,,,
Nc1ncnc2c1ncn2[C@@H]1O[C@H](CO)[C@@H]1O [Compound No. 3],,1%,0.1%,< 0.1%
O=c1[nH]cnc2c1ncn2[C@H]1C[C@@H](CO)O1 [Compound No. 13],,< 0.1%,< 0.1%,< 0.1%
Nc1ncnc2c1ncn2[C@@H]1O[C@H](CO)[C@H]1F [Compound No. 10],,> 90%,50%,< 0.1%
Nc1ncnc2c1ncn2[C@H]1C[C@@H](CO)O1 [Compound No. 1],,0.1%,< 0.1%,< 0.1%
CCCCCCCCCCCCCCCC(=O)OC[C@H]1O[C@@H](n2cnc3c(N)ncnc32)[C@@H]1CO [Compound No. 9],1.7 µg/mL,7%,3%,< 0.1%
CCCCC(=O)OC[C@H]1O[C@@H](n2cnc3c(=O)[nH]c(N)nc32)[C@@H]1CO [Compound No. 14],> 5 µg/mL,,,
O=c1[nH]cnc2c1ncn2[C@@H]1O[C@H](CO)[C@H]1COS(=O)(=O)O [Compound No. 17],,60%,10%,< 0.1%
Nc1ncnc2c1ncn2[C@@H]1O[C@H](CO)[C@H]1N [Compound No. 16],,17%,6%,< 0.1%
C=C1[C@H](n2cnc3c(N)ncnc32)O[C@@H]1CO [Compound No. 4],,10%,3%,< 0.1%
[N-]=[N+]=N[C@H]1[C@H](n2cnc3c(N)ncnc32)O[C@@H]1CO [Compound No. 11],,> 90%,75%,< 0.1%
CCCCC(=O)OC[C@H]1O[C@@H](n2cnc3c(N)ncnc32)[C@@H]1CO [Compound No. 8],,5%,3%,< 0.1%
[N-]=[N+]=NC[C@H]1[C@H](n2cnc3c(N)ncnc32)O[C@@H]1CO [Compound No. 2],,15%,10%,< 0.1%
